These results are taken from patent publication US20250032430A1, “USES OF RHODOQUINONE FOR THE TREATMENT OF DISEASE” (Whitehead Institute for Biomedical Research, priority 2021, published 2025).

The test system of the assay is SDH complex. Kind of assay: Ex vivo net direction of the SDH complex in mouse tissues. As to conditions: ex vivo antimycin treatment of liver, kidney, heart, skeletal muscle. The procedure: Ex vivo stable isotope tracing on tissues: Tissues were excised from mice and washed in 1×PBS. Tissues were then cut into small pieces and placed in the appropriate stable isotope tracing media. Stable isotope tracing media contained either ^13C5^15N2-glutamine (Sigma) or 13C4-aspartate (Sigma) dissolved in DMEM, 5% FBS, 1% P/S. For ex vivo tracing experiments performed on the brain, the same media was used without FBS. Tissues were incubated for the designated time at 37° C. in a normal or hypoxia tissue culture incubator. Tissues were removed from the media, washed with PBS, and flash frozen in liquid nitrogen. Samples could be stored at −80° C. until metabolites were isolated.
Isolation of metabolites from tissues: Tissues were flash frozen and powderized with a mortar and pestle in a liquid nitrogen bath. Approximately 30 mg of tissue powder was transferred into eppendorf tubes and re-suspended in 800 uL ice-cold LC-MS grade 60:40 Methanol:Water (ThermoFisher). Samples were vortexed for 10 minutes at 4° C. […] The top layer was transferred to a new tube, dried down in a speedvac, and subsequently stored at −80° C. until they were analyzed by LC-MS. […] Protein in each sample was quantified using the Pierce BCA Protein Assay Kit (Life Technologies). […]

For antimycin, the “net-reversal of the SDH complex” value was “only the liver and kidney maintained net-reversal”.
